Some test systems named below: A498 renal; EKVX NSCLC; ACHN renal; RXF 393 renal; NCI-H522 lung; OVCAR-4 ovarian; NCI-H226 lung; NCI-H460 lung; KM12 colon; SF-268 CNS.
What all share (assay): growth of human tumour cells (NCI), 48 h

The structures appear in SMILES notation. Values joined by “and” are separate entries in the source; they are usually repeats but may differ in a detail not shown here. Equal entries are not always repeated.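 Cells were grown in 96-well plates and exposed to each compound for 48 hours at five concentrations; endpoints were interpolated linearly between bracketing concentrations, or set to the highest concentration if not reached. The concentration for 50% growth inhibition is given as GI50. At the TGI there is no net growth.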

`BrCc1cccc(C[P+](c2ccccc2)(c2ccccc2)c2ccccc2)c1`: the GI50 with A498 renal is 59.5 µM; in the experiment on EKVX NSCLC, 18.1 µM; with ACHN renal, above 100 µM; in the experiment on RXF 393 renal, 54.7 µM; in the experiment on NCI-H522 lung it was 6.88 µM; in the experiment on OVCAR-4 ovarian, 9.02 µM. For the same compound, the GI50 was 45 µM with NCI-H226 lung, 25 µM in the experiment with NCI-H460 lung, 16 µM in the experiment on KM12 colon and 40.4 µM in the experiment with SF-268 CNS. Moreover, the TGI in the experiment with A498 renal, with EKVX NSCLC, with ACHN renal, in the experiment on RXF 393 renal, in the experiment on NCI-H522 lung and in the experiment with OVCAR-4 ovarian was above 100 µM each time. The TGI with NCI-H226 lung, in the experiment on NCI-H460 lung, in the experiment with KM12 colon and in the experiment with SF-268 CNS was above 100 µM each time.

For `CC1CCN(C(=O)OCc2nc3nc(Cl)nc(N4CCOCC4)c3[nH]2)CC1`, the GI50 in the experiment on A498 renal was 1.65 µM; with EKVX NSCLC, 1.48 µM; in the experiment on ACHN renal it was 0.583 µM; in the experiment on RXF 393 renal, 0.554 µM; in the experiment on NCI-H522 lung, 1.08 µM; in the experiment on OVCAR-4 ovarian it was 1.35 µM. The GI50 was 1.62 µM in the experiment on NCI-H226 lung, 1.38 µM with NCI-H460 lung, 1.58 µM in the experiment on KM12 colon and 1.42 µM in the experiment on SF-268 CNS. Also, the TGI amounted to 4.05 µM with A498 renal; 3.3 µM with EKVX NSCLC; 1.88 µM in the experiment with ACHN renal; 2 µM with RXF 393 renal; 3.13 µM with NCI-H522 lung; 2.72 µM with OVCAR-4 ovarian. Moreover, the TGI in the experiment with NCI-H226 lung was found to be 4.23 µM; with NCI-H460 lung, 2.99 µM; with KM12 colon, 3.33 µM; with SF-268 CNS, 2.84 µM.

As for `COc1ccc(-c2nnc(N3CCN(C(=O)CN4CCN(c5ccccc5)CC4)CC3)nc2-c2ccc(OC)cc2)cc1`, the GI50 was 3 µM in the experiment on A498 renal; 4.91 µM in the experiment with EKVX NSCLC; 3.92 µM in the experiment on ACHN renal; 3.36 µM in the experiment with RXF 393 renal; 7.44 µM in the experiment on NCI-H522 lung; 6.36 µM in the experiment with OVCAR-4 ovarian. The GI50 is 3.76 µM in the experiment with NCI-H226 lung, 4.2 µM in the experiment on NCI-H460 lung, 3.67 µM in the experiment on KM12 colon and 83.4 µM with SF-268 CNS. Further, the TGI in the experiment with A498 renal is 19.1 µM; with EKVX NSCLC it was above 100 µM; with ACHN renal it was 21.7 µM; in the experiment with RXF 393 renal, 22.4 µM; in the experiment with NCI-H522 lung, above 100 µM; in the experiment on OVCAR-4 ovarian it was above 100 µM. The TGI in the experiment with NCI-H226 lung, in the experiment on NCI-H460 lung, in the experiment with KM12 colon and in the experiment with SF-268 CNS was above 100 µM in each case.

In the case of `COc1ccc2c(c1)c[n+](C)c1c3cc(OC)c(OC)cc3ccc21`, the GI50 was 2.02 µM and 19.7 µM in the experiment on A498 renal; 1.5 µM and 11.3 µM with EKVX NSCLC; 2.42 µM and 9.86 µM in the experiment with ACHN renal; 1.5 µM and 5.8 µM in the experiment on RXF 393 renal; 5.48 µM with OVCAR-4 ovarian; 4.22 µM and 12.1 µM in the experiment with NCI-H226 lung. The GI50 in the experiment with NCI-H460 lung was 1.23 µM and 2.7 µM; in the experiment with KM12 colon, 1.21 µM and 2.88 µM. Besides, the TGI in the experiment with A498 renal was 6.85 µM and 57.7 µM; in the experiment with EKVX NSCLC, 4.52 µM and 42.3 µM; in the experiment with ACHN renal, 5.01 µM and 23.8 µM; in the experiment on RXF 393 renal, 2.98 µM and 13.6 µM; with NCI-H522 lung it was 2.33 µM and 4.34 µM; with OVCAR-4 ovarian, 20.4 µM. Moreover, the TGI was 14.8 µM and 25.9 µM in the experiment on NCI-H226 lung; 2.72 µM and 10.9 µM in the experiment with NCI-H460 lung; 2.79 µM and 9.42 µM with KM12 colon; 9.9 µM with SF-268 CNS.

Regarding `O=[N+]([O-])c1cccc2ccc(N/N=C/c3ccccc3O)nc12`, the GI50 in the experiment with A498 renal was above 100 µM; in the experiment with EKVX NSCLC it was above 100 µM; with ACHN renal it was above 100 µM; in the experiment on RXF 393 renal, 65.8 µM; with OVCAR-4 ovarian it was above 100 µM; in the experiment on NCI-H226 lung, above 100 µM. The GI50 with NCI-H460 lung, in the experiment with KM12 colon and with SF-268 CNS was above 100 µM each time. Further, the TGI with A498 renal was above 100 µM; with EKVX NSCLC, above 100 µM; in the experiment with ACHN renal, above 100 µM; in the experiment on RXF 393 renal, above 100 µM; in the experiment on NCI-H522 lung, above 39.6 µM; with OVCAR-4 ovarian, above 100 µM. Moreover, the TGI in the experiment with NCI-H226 lung, with NCI-H460 lung, in the experiment with KM12 colon and in the experiment with SF-268 CNS was above 100 µM each time.

Take `CCc1c(Cl)c(C)cc(O)c1Cl`: the TGI in the experiment on A498 renal was 54.7 µM; in the experiment with EKVX NSCLC, above 100 µM; in the experiment on ACHN renal, 60.6 µM; with RXF 393 renal, above 100 µM; in the experiment on NCI-H522 lung, above 100 µM; with OVCAR-4 ovarian, above 100 µM. For the same compound, the TGI in the experiment on NCI-H226 lung is 63.2 µM; with NCI-H460 lung, above 100 µM; in the experiment on KM12 colon, above 100 µM; in the experiment on SF-268 CNS it was above 100 µM.

As to `COc1ccccc1Nc1ncc(-c2ccccc2)o1`, the GI50 in the experiment on A498 renal, in the experiment with EKVX NSCLC, with ACHN renal, in the experiment on RXF 393 renal, with NCI-H522 lung and in the experiment on OVCAR-4 ovarian was above 25 µM each time. For the same compound, the GI50 with NCI-H226 lung is above 25 µM; with NCI-H460 lung, above 25 µM; in the experiment on KM12 colon it was 9.77 µM; with SF-268 CNS, above 25 µM. Also, the TGI with A498 renal, in the experiment with EKVX NSCLC, in the experiment with ACHN renal, in the experiment on RXF 393 renal, in the experiment on NCI-H522 lung and in the experiment with OVCAR-4 ovarian was above 25 µM throughout. Besides, the TGI with NCI-H226 lung, with NCI-H460 lung, in the experiment with KM12 colon and with SF-268 CNS was above 25 µM throughout.

In the case of `COC(=O)C1=CN(CC2=CC(=O)C(C)=CC2=O)C=C(C(=O)OC)C1c1cccc(OC)c1`, the GI50 in the experiment with A498 renal was 18.6 µM; with EKVX NSCLC, 12.2 µM; in the experiment on ACHN renal, 2.78 µM; in the experiment with RXF 393 renal it was 17.4 µM; in the experiment on NCI-H522 lung, 8.19 µM; in the experiment with OVCAR-4 ovarian, 25.7 µM. The GI50 in the experiment on NCI-H226 lung was 20 µM; in the experiment with NCI-H460 lung, 14.3 µM; in the experiment on KM12 colon it was 8.34 µM; in the experiment on SF-268 CNS, 12.1 µM. Moreover, the TGI is 34.6 µM with A498 renal; 27.2 µM in the experiment on EKVX NSCLC; 7.99 µM with ACHN renal; 39.8 µM in the experiment with RXF 393 renal; above 31.9 µM with NCI-H522 lung; above 100 µM with OVCAR-4 ovarian. The TGI with NCI-H226 lung was determined as 62.2 µM; in the experiment on NCI-H460 lung, 49.7 µM; with KM12 colon, 26.9 µM; with SF-268 CNS, 30.8 µM.

The record behind these values is PubChem BioAssay (NCI).
